Source: BigSolDB 2.1

CC(=O)OC(OC(C)=O)c1ccc([N+](=O)[O-])o1
solubility (mole fraction)
Conditions	in 1,4-dioxane	in DMF	in THF	in acetone	in acetonitrile	in ethyl acetate	in methanol	in n-hexane	in n-propanol	in toluene
278.15 K	0.0821	0.161	0.121	0.0864	0.0016	0.002	0.0778	0.0285	0.0435	0.141
283.15 K	0.0954	0.174	0.146	0.108	0.002	0.0031	0.0834	0.0358	0.0474	0.154
288.15 K	0.109	0.192	0.181	0.127	0.0028	0.0048	0.0898	0.0458	0.0513	0.171
293.15 K	0.131	0.209	0.217	0.156	0.0038	0.0068	0.0995	0.0562	0.0571	0.192
298.15 K	0.146	0.227	0.256	0.182	0.0052	0.0101	0.108	0.0721	0.0625	0.211
303.15 K	0.166	0.248	0.298	0.214	0.0069	0.0143	0.118	0.0883	0.0687	0.239
308.15 K	0.188	0.271	0.341	0.249	0.0093	0.02	0.129	0.109	0.0761	0.267
313.15 K	0.214	0.296	0.385	0.291	0.0126	0.0283	0.143	0.133	0.0843	0.293
318.15 K	0.237	0.319	0.434	0.33	0.0167	0.0405	0.155	0.162	0.0924	0.33
323.15 K	0.267	0.351	0.488	0.379	0.0215	0.0548	0.173	0.196	0.104	0.373
